US12195427B2, “MASP-2 inhibitors and methods of use” (priority 2018, dated 2025)
Counter-ions that a name gives are not always drawn.

Molecular target: MASP-2 CCP2-SP (Homo sapiens (Human), UniProt O00187)
Test: MASP-2 co-crystallization, X-ray crystallography and structure analysis (H-bonds, van der Waals contacts);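 for Ligand-pharmacophore element distance, pharmacophore element C2: distance from averaged pharmacophore element to bound ligand; missing value means element absent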;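 for Ligand-pharmacophore element distance, pharmacophore element C3: distance from averaged pharmacophore element to bound ligand; missing value means element absent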;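 for Ligand-pharmacophore element distance, pharmacophore element C4: distance from averaged pharmacophore element to bound ligand; missing value means element absent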;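 for Ligand-pharmacophore element distance, pharmacophore element C5: distance from averaged pharmacophore element to bound ligand; missing value means element absent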
Design: van der Waals contact distance, MASP-2 HIS 483 atom CD2 / van der Waals contact distance, MASP-2 HIS 483 atom NE2 / van der Waals contact distance, SER 654 C to compound atom / van der Waals contact distance, SER 654 O to compound atom / van der Waals contact distance, TRP 655 C to compound atom / van der Waals contact distance, MASP-2 GLY 528 atom CA / van der Waals contact distance TRP 655 atom CZ3 / van der Waals contact distance TRP 655 atom N / van der Waals contact distance TRP 655 atom CE3 / van der Waals contact distance GLY 656 atom C / van der Waals contact distance GLY 656 atom CA / van der Waals contact distance GLY 656 atom O / van der Waals contact distance, MASP-2 TYR 607 atom CD1 / van der Waals contact distance, MASP-2 PRO 606 atom O / d(C3,CA1) / d(CA1,N1)2 / d(H4,O1) / d(H4,O2) / d(O1,O2) / d(CA1,O2) / d(CA6,O1) / d(CA6,O2) / d(CA1,C5) / d(O2,H3) / d(N2,C2) / d(CA5,N2) / d(N2,C4) / d(N2,C6) / d(N2,CA3) / d(N2,O3) / d(O4,H2): unit not given beside the values
Details: for H-bond distance to MASP-2 GLY 656 atom O: GLY 656 O; for H-bond distance to MASP-2 SER 654 atom O: SER 654 O; for H-bond distance to MASP-2 SER 657 atom O: SER 657 O; for van der Waals contact distance, MASP-2 HIS 483 atom CD2 / van der Waals contact distance, MASP-2 HIS 483 atom NE2: Table A2-1; for Ligand-pharmacophore element distance, pharmacophore element C2 / Ligand-pharmacophore element distance, pharmacophore element C3 / Ligand-pharmacophore element distance, pharmacophore element C4 / Ligand-pharmacophore element distance, pharmacophore element C5 / Ligand-pharmacophore element distance, pharmacophore element C6 / Ligand-pharmacophore element distance, pharmacophore element C7 / Ligand-pharmacophore element distance, pharmacophore element CA1 / Ligand-pharmacophore element distance, pharmacophore element CA2 / Ligand-pharmacophore element distance, pharmacophore element CA3 / Ligand-pharmacophore element distance, pharmacophore element CA4 / Ligand-pharmacophore element distance, pharmacophore element CA5 / Ligand-pharmacophore element distance, pharmacophore element CA6: Table A4-1
Outline: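 Contacts and H-bonds come from partially refined soaked-crystal structures of recombinant human CCP2-SP made in E. coli, solved by molecular replacement against 1Q3X fragments. Where several ligand poses appeared, only one was analysed; listed nonbonded contacts may include possible H-bond pairings.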

[1] = Table A2 section before Table A2-8
[2] = Table A5-1 pharmacophore: distance between elements, S2/S1 region
[3] = Table A5-2 pharmacophore distance, S3/S4 region
[4] = Table A7-1, between pharmacophore elements of the bound compound
[5] = Table A7-2, between pharmacophore elements of the bound compound

Sequence of MASP-2 CCP2-SP (O00187 445-686): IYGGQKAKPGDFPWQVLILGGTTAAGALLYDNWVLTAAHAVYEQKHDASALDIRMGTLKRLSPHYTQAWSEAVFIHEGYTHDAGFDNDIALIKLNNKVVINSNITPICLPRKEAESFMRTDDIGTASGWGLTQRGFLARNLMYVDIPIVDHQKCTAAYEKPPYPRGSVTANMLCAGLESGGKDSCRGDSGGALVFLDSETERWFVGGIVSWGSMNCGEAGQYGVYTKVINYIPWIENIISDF
Sequence of MASP-2 CCP2-SP (O00187 364-432 partner): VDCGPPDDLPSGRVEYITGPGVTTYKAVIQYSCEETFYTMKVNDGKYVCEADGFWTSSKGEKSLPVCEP

Cc1cccc([C@H]2CN[C@@H](C(=O)N[C@@H](C)C(=O)NCc3ccc(N)nc3C)C2)c1 [compound 1257, (2R,4S)—N—((S)-1-(((6-Amino-2-methylpyridin-3-yl)methyl)amino)-1-oxopropan-2-yl)-4-(m-tolyl)pyrrolidine-2-carboxamide Dihydrochloride]
H-bond distance to MASP-2 GLY 656 atom O (Table A1 (H-Bonds)): 2.82
H-bond distance to MASP-2 SER 628 atom O (Table A1 (H-Bonds), SER 628 O): 3.12
H-bond distance to MASP-2 SER 654 atom O (Table A1 (H-Bonds)): 3.02
H-bond distance to MASP-2 SER 657 atom O (Table A1 (H-Bonds)): 2.86
van der Waals contact distance, MASP-2 HIS 483 atom CD2: 3.7
van der Waals contact distance, MASP-2 HIS 483 atom NE2: 3.72
van der Waals contact distance, MASP-2 PHE 529 atom CD1 (Table A2-3): 3.89
van der Waals contact distance, MASP-2 PRO 606 atom O (Table A2-4): 3.38
van der Waals contact distance, MASP-2 amino acid atom to compound atom (Table A2-5: TYR 607 (CE1, CE2, OH), PRO 608 (CD, CG), SER 611 (CA)): 3.8
van der Waals contact distance, MASP-2 amino acid atom to compound atom (Table A2-9, ARG 630, AA atoms CG, CZ): 3.53
van der Waals contact distance, VAL 653 CG1 to compound atom (Table A2-11): 3.36
van der Waals contact distance, SER 654 O to compound atom (Table A2-12): 3.73
van der Waals contact distance, TRP 655 CA to compound atom (Table A2-12): 3.57
van der Waals contact distance TRP 655 atom CE3 (Table A2-13, MASP-2 TRP 655 CE3, compound atom in line below): 3.87
van der Waals contact distance TRP 655 atom CZ3 (Table A2-13, MASP-2 TRP 655 CZ3): 3.77
van der Waals contact distance, MASP-2 amino acid atom to compound atom [1]: 3.86
Ligand-pharmacophore element distance, pharmacophore element C2: 0
Ligand-pharmacophore element distance, pharmacophore element C3: 0.1
Ligand-pharmacophore element distance, pharmacophore element C4: 0
Ligand-pharmacophore element distance, pharmacophore element C5: 0
Ligand-pharmacophore element distance, pharmacophore element C6: 0.53
Ligand-pharmacophore element distance, pharmacophore element C7: 0
Ligand-pharmacophore element distance, pharmacophore element CA1: 0.65
Ligand-pharmacophore element distance, pharmacophore element CA2: 0
Ligand-pharmacophore element distance, pharmacophore element CA3: 0
Ligand-pharmacophore element distance, pharmacophore element CA4: 0
Ligand-pharmacophore element distance, pharmacophore element CA5: 1.2
Ligand-pharmacophore element distance, pharmacophore element CA6: 0
d(C3,CA1) [2]: 2.87
d(CA1,N1)2 [2]: 1.35
d(CA1,O1) [2]: 4.45
d(CA1,O2) [2]: 4.03
d(H4,O1) [2]: 4.43
d(H4,O2) [2]: 3.84
d(O1,O2) [2]: 3.61
d(CA5,N2) [3]: 5.09
d(N2,C6) [3]: 6.64
d(O2,H3) [3]: 2.18
d(O2,N2) [3]: 2.71
a(C3, CA1, O1) (Table A6-1 pharmacophore angle): 150.46
a(CA1, O1, O2) (Table A6-1 pharmacophore angle): 109.00
a(O1, O2, H4) (Table A6-1 pharmacophore angle): 128.83
a(N1, CA1, O1) b) (Table A6-1 pharmacophore angle, Methyl-amino-pyridine compounds): 174.64
a(O1, O2, H3) (Table A6-2 pharmacophore angle): 132.63
a(O1, O2, N2) (Table A6-2 pharmacophore angle): 141.45
a(O2, N2, C6) (Table A6-2 pharmacophore angle): 105.30
Pharmacophore torsion angle a(C3, CA1, O1, H4) [4]: 30.77
Pharmacophore torsion angle a(H4, O1, O2, H3) [4]: 108.60
Pharmacophore torsion angle a(H4, O1, O2, N2) [4]: 132.94
Pharmacophore torsion angle a(N1, CA1, O1, H4) [4]: 11.94
Pharmacophore torsion angle a(O1, H4, O2, CA1) [4]: −83.51
Pharmacophore torsion angle a(O1, O2, N2, C6) [5]: 146.13
Pharmacophore torsion angle a(O1, O2, N2, CA5) [5]: 134.25

C[C@H](NC(=O)[C@H]1C[C@@H](c2ccccc2)CCN1)C(=O)NCc1cc(Cl)ccc1O.Cl [1078_12]
Ligand-pharmacophore element distance, pharmacophore element C2: 0.4
Ligand-pharmacophore element distance, pharmacophore element C3: 0
Ligand-pharmacophore element distance, pharmacophore element C4: 0
Ligand-pharmacophore element distance, pharmacophore element C5: 0.52
Ligand-pharmacophore element distance, pharmacophore element C6: 0
Ligand-pharmacophore element distance, pharmacophore element C7: 0
Ligand-pharmacophore element distance, pharmacophore element CA1: 1.43
Ligand-pharmacophore element distance, pharmacophore element CA2: 0.64
Ligand-pharmacophore element distance, pharmacophore element CA3: 0
Ligand-pharmacophore element distance, pharmacophore element CA4: 0
Ligand-pharmacophore element distance, pharmacophore element CA5: 0
Ligand-pharmacophore element distance, pharmacophore element CA6: 0
d(CA1,C5) [2]: 3.12
d(CA1,O1) [2]: 4.34
d(CA1,O2) [2]: 4.51
d(CA1,O4) [2]: 2.74
d(H4,O1) [2]: 3.08
d(H4,O2) [2]: 3.40
d(O1,O2) [2]: 2.81
d(O4,H2) [2]: 0.98
d(N2,C2) [3]: 1.45
d(N2,CA2) [3]: 5.74
d(O2,H3) [3]: 2.85
d(O2,N2) [3]: 2.84
a(C5, CA1, O1) (Table A6-1 pharmacophore angle): 161.92
a(CA1, O1, O2) (Table A6-1 pharmacophore angle): 111.74
a(CA1, O4, H2) (Table A6-1 pharmacophore angle): 127.55
a(O1, CA1, O4) (Table A6-1 pharmacophore angle): 67.44
a(O1, O2, H4) (Table A6-1 pharmacophore angle): 128.90
a(O1, O2, H3) (Table A6-2 pharmacophore angle): 150.80
a(O1, O2, N2) (Table A6-2 pharmacophore angle): 154.56
a(O2, N2, C2) (Table A6-2 pharmacophore angle): 130.32
a(O2, N2, CA2) (Table A6-2 pharmacophore angle): 157.60
Pharmacophore torsion angle a(C5, CA1, O1, H4) [4]: 11.21
Pharmacophore torsion angle a(H4, O1, O2, H3) [4]: −120.32
Pharmacophore torsion angle a(H4, O1, O2, N2) [4]: −108.09
Pharmacophore torsion angle a(O1, H4, O2, CA1) [4]: −75.33
Pharmacophore torsion angle a(O1, O2, N2, C2) [4]: 114.97
Pharmacophore torsion angle a(O1, O2, N2, CA2) [5]: 110.39

C[C@H](NC(=O)[C@H]1C[C@H](Cc2ccccc2)CN1)C(=O)NCc1cc(Cl)ccc1-n1cnnn1 [compound 1371, (2R,4S)-4-Benzyl-N—((S)-1-((5-chloro-2-(1H-tetrazol-1-yl)benzyl)amino)-1-oxopropan-2-yl)pyrrolidine-2-carboxamide Hydrochloride]
H-bond distance to MASP-2 GLY 656 atom N (Table A1 (H-Bonds), GLY 656 N): 3.18
H-bond distance to MASP-2 GLY 656 atom O (Table A1 (H-Bonds)): 2.75
H-bond distance to MASP-2 SER 654 atom O (Table A1 (H-Bonds)): 2.86
H-bond distance to MASP-2 SER 657 atom O (Table A1 (H-Bonds)): 2.96
van der Waals contact distance, MASP-2 HIS 483 atom CD2: 3.55
van der Waals contact distance, MASP-2 HIS 483 atom NE2: 3.61
van der Waals contact distance, MASP-2 GLY 528 atom CA (Table A2-2): 3.8
van der Waals contact distance, MASP-2 PHE 529 atom CD2 (Table A2-3): 3.86
van der Waals contact distance, MASP-2 PHE 529 atom CE2 (Table A2-3): 3.89
van der Waals contact distance, MASP-2 amino acid atom to compound atom (Table A2-9 second part, ARG 630, AA atoms N, NE, NH1): 3.44
van der Waals contact distance, SER 654 C to compound atom (Table A2-11): 3.9
van der Waals contact distance GLY 656 atom C (Table A2-13, MASP-2 GLY 656 C): 3.84
van der Waals contact distance, MASP-2 amino acid atom to compound atom [1]: 3.76
Ligand-pharmacophore element distance, pharmacophore element C2: 0
Ligand-pharmacophore element distance, pharmacophore element C3: 0
Ligand-pharmacophore element distance, pharmacophore element C4: 0
Ligand-pharmacophore element distance, pharmacophore element C5: 0.48
Ligand-pharmacophore element distance, pharmacophore element C6: 0
Ligand-pharmacophore element distance, pharmacophore element C7: 0
Ligand-pharmacophore element distance, pharmacophore element CA1: 0.58
Ligand-pharmacophore element distance, pharmacophore element CA2: 0.46
Ligand-pharmacophore element distance, pharmacophore element CA3: 0
Ligand-pharmacophore element distance, pharmacophore element CA4: 0
Ligand-pharmacophore element distance, pharmacophore element CA5: 0
Ligand-pharmacophore element distance, pharmacophore element CA6: 0
d(CA1,O1) [2]: 3.46
d(CA1,O2) [2]: 3.72
d(H4,O1) [2]: 3.13
d(H4,O2) [2]: 3.66
d(O1,O2) [2]: 3.25
d(N2,CA2) [3]: 5.90
d(O2,H3) [3]: 1.96
d(O2,N2) [3]: 2.79
a(CA1, O1, O2) (Table A6-1 pharmacophore angle): 121.03
a(O1, O2, H4) (Table A6-1 pharmacophore angle): 123.31
a(O1, O2, H3) (Table A6-2 pharmacophore angle): 136.64
a(O1, O2, N2) (Table A6-2 pharmacophore angle): 146.93
a(O2, N2, CA2) (Table A6-2 pharmacophore angle): 155.86
Pharmacophore torsion angle a(H4, O1, O2, H3) [4]: −165.12
Pharmacophore torsion angle a(H4, O1, O2, N2) [4]: −174.11
Pharmacophore torsion angle a(O1, H4, O2, CA1) [4]: −68.15
Pharmacophore torsion angle a(O1, O2, N2, CA2) [5]: 136.54
